The record followed here is US10829473B2, “Modulators of the cystic fibrosis transmembrane conductance regulator protein and methods of use” (AbbVie Overseas S.Á.R.L., priority 2017, dated 2020).

Where two headings read alike, the source gives them in different places.

In this assay the target is T1, F508delCFTR (Homo sapiens, UniProt P13569, DEL508-508).
T1 construct: expressed in transfected cells; host or cells: CFBE41o- human lung derived epithelial cells (CFBE41o-F508delCFTR-HRP), doxycycline-inducible
T1 sequence (P13569 with tags, fused parts or gaps DEL508-508): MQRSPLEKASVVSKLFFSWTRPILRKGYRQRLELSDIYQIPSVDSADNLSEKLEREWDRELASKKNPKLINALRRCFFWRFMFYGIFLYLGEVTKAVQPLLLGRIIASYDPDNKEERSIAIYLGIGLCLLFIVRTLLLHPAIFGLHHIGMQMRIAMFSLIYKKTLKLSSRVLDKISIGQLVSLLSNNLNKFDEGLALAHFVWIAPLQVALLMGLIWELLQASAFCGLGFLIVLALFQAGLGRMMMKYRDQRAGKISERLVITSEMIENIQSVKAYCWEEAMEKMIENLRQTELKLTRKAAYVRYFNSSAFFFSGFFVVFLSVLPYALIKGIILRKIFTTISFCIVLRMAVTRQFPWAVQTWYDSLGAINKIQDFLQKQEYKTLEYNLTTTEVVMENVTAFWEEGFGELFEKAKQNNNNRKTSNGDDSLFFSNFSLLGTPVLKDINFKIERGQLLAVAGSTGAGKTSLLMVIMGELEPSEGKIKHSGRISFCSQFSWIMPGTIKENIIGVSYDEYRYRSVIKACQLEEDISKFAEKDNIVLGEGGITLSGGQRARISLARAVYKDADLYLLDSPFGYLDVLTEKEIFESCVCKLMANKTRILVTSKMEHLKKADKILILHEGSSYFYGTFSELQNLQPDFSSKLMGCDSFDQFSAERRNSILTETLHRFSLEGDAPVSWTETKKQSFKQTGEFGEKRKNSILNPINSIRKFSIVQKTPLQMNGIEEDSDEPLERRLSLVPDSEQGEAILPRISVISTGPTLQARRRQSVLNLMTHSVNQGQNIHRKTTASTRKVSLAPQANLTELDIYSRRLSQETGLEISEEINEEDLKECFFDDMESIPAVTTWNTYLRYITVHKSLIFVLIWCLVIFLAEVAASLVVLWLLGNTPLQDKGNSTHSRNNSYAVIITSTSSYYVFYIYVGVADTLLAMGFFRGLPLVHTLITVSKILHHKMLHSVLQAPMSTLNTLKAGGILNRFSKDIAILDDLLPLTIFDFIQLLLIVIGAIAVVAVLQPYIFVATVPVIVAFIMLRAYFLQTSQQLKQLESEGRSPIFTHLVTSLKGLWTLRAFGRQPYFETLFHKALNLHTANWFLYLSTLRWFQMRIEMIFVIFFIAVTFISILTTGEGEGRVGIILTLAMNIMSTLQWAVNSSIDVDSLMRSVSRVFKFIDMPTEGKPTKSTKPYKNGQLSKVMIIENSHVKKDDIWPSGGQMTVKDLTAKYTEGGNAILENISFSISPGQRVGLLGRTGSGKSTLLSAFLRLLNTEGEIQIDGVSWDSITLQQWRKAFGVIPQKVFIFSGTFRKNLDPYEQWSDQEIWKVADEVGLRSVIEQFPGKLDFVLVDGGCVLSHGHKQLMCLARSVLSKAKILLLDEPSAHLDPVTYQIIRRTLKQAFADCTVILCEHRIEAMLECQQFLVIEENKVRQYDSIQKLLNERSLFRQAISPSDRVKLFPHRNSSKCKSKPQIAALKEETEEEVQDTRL
The assay is described as follows: Cell Surface Expression-Horse Radish Peroxidase (CSE-HRP) Assay.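 As to EC50 (with co-corrector): co-corrector chromenyl benzoic acid corrector at 2 or 3 µM.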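 As to Maximum % activity (without co-corrector): % of on-plate positive control chromenyl benzoic acid corrector at 2 or 3 µM.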 The following applies: for Maximum % activity (with co-corrector) / Emax: maximum at any tested concentration; for Emax: read-out: Maximum % activity (without co-corrector). The class given is cell-based. The method in brief: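 Corrector compounds were given as 8-point 3-fold series from 20 or 30 μM, with or without a 2 μM co-corrector, for 18-24 h at 33 °C. Surface HRP was read by luminol luminescence as % of positive control; variable-Hill-slope sigmoidal fitting gave EC50 from triplicate plates.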

[1] abbreviates: test compound alone, without co-corrector, read-out: EC50 (without co-corrector).
[2] abbreviates: with co-corrector, read-out: EC50 (with co-corrector).

As a reminder, the EC50 is the concentration giving half of the maximal effect. For the molecule `CCc1ccc(OC)c(C2(C(=O)NS(=O)(=O)c3cccc4[nH]ncc34)CC2)c1` [II-72], the EC50 was below 3 µM under setting [1] and below 3 µM under setting [2]. Besides, the “Maximum % activity (with co-corrector)” value (with co-corrector) is listed as “+++ (≥350)”. Also, the Emax (without co-corrector) was above 150%.
Turning to `CCOc1ccc(C)cc1C1(C(=O)NS(=O)(=O)c2cccc3[nH]ncc23)CC1` [II-74], the EC50 under setting [1] was below 3 µM and the EC50 under setting [2] was below 3 µM. Besides, the “Maximum % activity (with co-corrector)” value (with co-corrector) is recorded as “+++ (≥350)”. The Emax (without co-corrector) is above 150%.
For the molecule `Cc1ccc(OC(C)C)c(C2(C(=O)NS(=O)(=O)c3cccc4[nH]ncc34)CC2)c1` [II-75], the EC50 by setting is: under setting [1], below 3 µM; under setting [2], below 3 µM. Also, under “with co-corrector”, the “Maximum % activity (with co-corrector)” value is listed as “+++ (≥350)”. Also, the Emax (without co-corrector) is above 150%.
Consider `COc1cc(C2CCC2)cc(OC)c1C1(C(=O)NS(=O)(=O)c2cccc3[nH]ncc23)CC1` [II-76], for which the concentration giving a half-maximal response (EC50) runs as follows: under setting [1], 3 to 10 µM; under setting [2], 3 to 10 µM. For the same molecule, the “Maximum % activity (with co-corrector)” value (with co-corrector) is “+++ (≥350)”. Also, the Emax (without co-corrector) was above 150%.
For the molecule `COc1ccc(C)c(C)c1C1(C(=O)NS(=O)(=O)c2cccc3[nH]ncc23)CC1` [II-77], the EC50 reads like this: under setting [1], below 3 µM; under setting [2], below 3 µM. For the same molecule, the “Maximum % activity (with co-corrector)” value (with co-corrector) was “+++ (≥350)”. Further, under “without co-corrector”, the Emax was above 150%.
Regarding `COc1ccc(C2CC2)c(C)c1C1(C(=O)NS(=O)(=O)c2cccc3[nH]ncc23)CC1` [II-78], the EC50 was below 3 µM under setting [1] and below 3 µM under setting [2]. In addition, the “Maximum % activity (with co-corrector)” value (with co-corrector) is “+++ (≥350)”. Besides, for the setting “without co-corrector”, the Emax is above 150%.
Take `Cc1ccc(OC(C)C)c(C2(C(=O)NS(=O)(=O)c3cccc4[nH]ccc34)CC2)c1` [II-79]: the 50% effective concentration (EC50) reads like this: under setting [1], below 3 µM; under setting [2], below 3 µM. Also, the “Maximum % activity (with co-corrector)” value (with co-corrector) was “+++ (≥350)”. In addition, under “without co-corrector”, the Emax was above 150%.
In the case of `Cc1ccc(C)c(C2(C(=O)NS(=O)(=O)c3cccc4[nH]ccc34)CC2)c1` [II-80], the EC50 reads like this: under setting [1], 3 to 10 µM; under setting [2], below 3 µM. Also, the “Maximum % activity (with co-corrector)” value (with co-corrector) is listed as “+++ (≥350)”. Besides, under “without co-corrector”, the Emax is above 150%.
Turning to `COCC1(c2ccc(OC)c(C3(C(=O)NS(=O)(=O)c4cccc5nc(N)ccc45)CC3)c2)CC1` [II-82], the EC50 by setting is: under setting [1], 3 to 10 µM; under setting [2], below 3 µM. The “Maximum % activity (with co-corrector)” value (with co-corrector) is given as “+++ (≥350)”. Further, for the setting “without co-corrector”, the Emax was above 150%.
For `CCOc1ccc(C)cc1C1(C(=O)NS(=O)(=O)c2cccc3nc(OC)ccc23)CC1` [II-83] the same measures were below 3 µM, below 3 µM, “+++ (≥350)” and above 150%.
Consider `CCOc1ccc(C)cc1C1(C(=O)NS(=O)(=O)c2cccc3nc(NC)ccc23)CC1` [II-84], for which the concentration giving a half-maximal response (EC50) is below 3 µM under setting [1] and below 3 µM under setting [2]. Moreover, under “with co-corrector”, the “Maximum % activity (with co-corrector)” value is reported as “+++ (≥350)”. For the same molecule, under “without co-corrector”, the Emax was above 150%.
For `CCOc1ccc(C)cc1C1(C(=O)NS(=O)(=O)c2cccc3[nH]ccc23)CC1` [II-85], the EC50 was below 3 µM under setting [1] and below 3 µM under setting [2]. Besides, for the setting “with co-corrector”, the “Maximum % activity (with co-corrector)” value is given as “+++ (≥350)”. Moreover, the Emax (without co-corrector) is above 150%.
`COc1ccc(C(OC)C(F)(F)F)cc1C1(C(=O)NS(=O)(=O)c2cccc3ncccc23)CC1` (stereo not drawn) [II-86]: the EC50 was 3 to 10 µM under setting [1] and below 3 µM under setting [2]. In addition, the “Maximum % activity (with co-corrector)” value (with co-corrector) is listed as “+++ (≥350)”. The Emax (without co-corrector) is above 150%.
For `COc1ccc(C(C)OC)cc1C1(C(=O)NS(=O)(=O)c2cccc3ncccc23)CC1` (stereo not drawn) [II-87] the same measures were 3 to 10 µM, below 3 µM, “+++ (≥350)” and above 150%.
For `COc1ccc(C(C)(C)OC)cc1C1(C(=O)NS(=O)(=O)c2cccc3[nH]ccc23)CC1` [II-88], the EC50 is, setting by setting: under setting [1], 3 to 10 µM; under setting [2], below 3 µM. Further, the “Maximum % activity (with co-corrector)” value (with co-corrector) was “+++ (≥350)”. Also, where the note is “without co-corrector”, the Emax is above 150%.
